Measured values taken from US8334253B2, “Cosmetic and dermatological formulations of MNTF peptides” (Dermacare Neuroscience Institute, priority 2008, dated 2012).
Peptide text beside a SMILES is read from it. * marks the point of attachment. Palmitoyl = CCCCCCCCCCCCCCCC(=O)*

Tests used:
[1] = tested on: UVA-bleaching of beta-carotene; test: UVA bleaching of beta-carotene on forearm skin, Color Index by CHROMAMETER; type: in vivo, human; details: 0.1% gel on human forearm, UVA
Procedure: In-vivo method for assessing the protective effects of cosmetic products. Bleaching of carotenoids have been used to evaluate the auto-oxidation activity of natural products. The relative efficacy of scavengers of lipid peroxyl free radicals after application to the skin was assessed by measuring the UVA-bleaching of beta-carotene as a function of the energy exposure.
A CHROMAMETER colorimeter (TM, Minolta Model CR-300) was used to measure changes in color by expressing the color of measured surfaces numerically in L*a*b* color space which is a system recommended by the CIE (Commission Internationale de I'Eclairage) for skin color assessment. In this color space, L* is the luminance and gives the relative brightness from total black (L*=0) to total white (L*=100). The a* value represents the balance between the reds (positive values) and the greens (negative values). The b* value represents the balance between the yellows (positive values) and the blues (negative values). The b* value most closely describes the intensity of the orange color of the β-carotene stain and is in direct correlation with the Color Index, I. The CHROMAMETER provides a means by which oxidative damage caused by free radicals and, conversely, the prevention of oxidation by free radical scavengers, can be measured. Free radical oxidation induced by UVA radiation elicits a bleaching and reduction of color of beta-carotene stain. The bleaching and prevention of bleaching by a test material can be measured by the CHROMAMETER. Bleaching is reported as the change in b* versus UVA Irradiation Energy. It can also be expressed in terms of a Color Index, I, defined as: I=[(bn*−bi*)/(b0*−bi*)]×100 where, bn* is the value of b* measured after n J/cm^2 of irradiation of the area treated with the cosmetic formulation and painted with the β-carotene; b0* is the value of b* after application of the beta-carotene but before irradiation; and bi* is the value of b* before application of the beta-carotene. This index compensates for any effects of skin color on bn* and b0*. Bleaching will cause bn* value and I value (as a percentage) to decrease. Prevention of bleaching will result in higher I values or less reduction in I value when exposed to radiation.
The designated forearm of impaneled subjects was cleansed with a 70% isopropyl alcohol prep pad (Medium, Dynarex) and allowed to dry. Test sites were selected on the volar surface of the designated forearm of each subject, with each test site defined by the open, central area of a self-adhesive ring (Professional ProFoot™ Products, P.P.R. Co, Inc.). The adhesive side of the rings were placed directly on the skin. The rings were used to retain the test material and beta-carotene solution as well as to function as a guide for taking measurements with the CHROMAMETER.
Gel formulations (0.1% Pal-hexapeptide) and (0.1% hexapeptide) were applied to the forearm according to a randomized schedule. Additional sites were treated with a beta-carotene control, a positive control (internal control) and an untreated control. Treatment of the test sites were randomized for each subject.
Prior to application of the test materials or beta-carotene, the initial b* parameter was measured using the CHROMAMETER and recorded for all duplicate test sites of the forearm (Baseline). Approximately 2 mg/cm^2 of each material was applied to the designated test site and spread manually with a finger cot to ensure even distribution. Sites designated as untreated, with or without beta-carotene, remained untreated at this time. The test materials and internal control were allowed to incubate with the skin surface for a period of fifteen (15) minutes. After this incubation period, b* measurements were recorded for all sites (Product Baseline).
A solution of beta-carotene in a mixture of capric and caprylic triglycerides was applied to all treated sites. The b* parameter is again measured and recorded (beta-carotene Baseline). […]

human keloid fibroblasts = test: Human keloid fibroblast proliferation kinetic study; type: cell-based; details: for inhibition of proliferation of human keloid fibroblasts: cell counts on days 1-4, Trypan blue exclusion
Procedure: Keloid can be characterized as a hyperproliferation/growth of fibrous scar tissue following trauma to the skin. […] Experimental protocols were based on a published study design for keloid fibroblast growth kinetics and is as described in Polo et al., 1999, Ann. Plastic Surg. 43 (2):185-190.
Briefly, fibroblasts were cultured from skin tissue obtained from fresh surgical specimens. The skin specimen was rinsed in 10 ml of calcium- and magnesium-free Dulbecco's phosphate-buffered saline (Sigma Chemical Co, St. Louis, Mo.) supplemented with gentamycin ([…]) for 30 minutes at room temperature. A second antibiotic rinse using 1% 10,000 U per milliliter penicillin G, 25 micrograms per milliliter amphotericin B, 10,000 micrograms per milliliter streptomycin sulfate solution (Gibco BRL, Gran Island, N.Y.) was performed for 10 minutes. The epidermis was separated from the dermis from each piece. The specimen was cut into four pieces of equal dimensions. Each piece was placed dermis-side down into a 60-mm culture dish containing Dispase solution (Collaborative Biomedical Products, Bedford, Mass.). The explants were incubated with no additional culture media for 15 minutes at 37° C. A total of 10 ml Dulbecco's modified Eagle's medium (DMEM; Gibco BRL) was added slowly to the culture dish, which was then incubated at 37° C. at 5% carbon dioxide. The cells were subcultured until 80% confluence was obtained. Trypsin-ethylenediaminetetraacetic acid (Gibco BRL) was added to […] the cells from the surface of the culture plate, and the cells were washed with DMEM and transferred to a centrifuge tube. […] The cells were counted using a hemocytometer, and their cell number was adjusted to 1×10^6 cells, which were then plated on a 35-mm Petri dish with 2 ml DMED and 1% fetal bovine serum, and incubated at 37° C. in 5% carbon dioxide. […]
Samples from each group were removed on days 1, 2, 3 and 4. The cells from each sample were trypsinized, washed, centrifuged, and resuspended in 1 ml DMEM; and were counted using the Trypan blue dye exclusion method and a hemocytometer.

Compound: CCCCCCCCCCCCCCCC(=O)N[C@@H](Cc1ccccc1)C(=O)N[C@@H](CO)C(=O)N[C@@H](CCCNC(=N)N)C(=O)N[C@@H](Cc1ccc(O)cc1)C(=O)N[C@@H](C)C(=O)N[C@@H](CCCNC(=N)N)C(=O)O [Pal 6 mer, Pal-FSRYAR] (Palmitoyl-FSRYAR-OH; C-terminus assumed)
- preventing the bleaching of beta-carotene compared to the beta-carotene control [1]: effective as a free radical scavenger
- inhibition of human keloid fibroblast cells, dose response study (human keloid fibroblasts; 10^−5 M or 10 micrograms per milliliter): highly effective
- inhibition of proliferation of human keloid fibroblasts (human keloid fibroblasts; listed as MNTF): statistically significant
- inhibition of proliferation of human keloid fibroblasts (human keloid fibroblasts; listed as Pal-Hexapeptide): dose-dependent reduction/inhibition
